Reference: patent US12624173B2, “Biodegradable polymeric compositions, methods of preparation and uses thereof” (B.G. NEGEV TECHNOLOGIES AND APPLICATIONS LTD., AT …, priority 2019, dated 2026)
Like-named read-outs stand apart in the source and are kept apart here.

Experiments:
[1] = Cannabidiol distribution in brain and plasma 1 h after IN and IV administration; type: in vivo; settings: rat
Protocol: The administered intranasal dose used in each animal was 220 μg CBD/kg body weight. The applied volume was approximately 15 μL/nostril. For the intravenous dose, a solution of CBD for injection was prepared by dissolving CBD in a small portion of ethanol, then mixed with a sterile saline solution (pH7.4) containing 1.5% Tween 80 and 0.1% ascorbic acid. The final concentration of ethanol was 5%. […] After 60 minutes from administration, the animals were euthanized by CO2 aspiration. […] The brain was then carefully excised, washed with saline, frozen at −80° C. and lyophilized.
The quantification of CBD was carried out at 220 nm.

[2] = CBD in oil, humans; cited from earlier work
[3] = rat, in vivo, iv
Protocol: (§1) For intravenous administration, aqueous solution of GR hydrochloride was prepared by dissolving the drug in a sterile saline solution. Approximately 0.3 ml of the solution were injected into the tail vein of a sedated animal (GR HCl dose=36 μg/kg body weight). The animals were sedated with isoflurane vapor just before administration. Sixty minutes after the administration, the animals were euthanized by CO2 aspiration. Then, blood sample was taken by cardiopuncture into heparinized tubes. Blood in heparinized tubes was centrifuged at 10,000-g for 10 min and the separated plasma was transferred into vials and kept at −20° C. until analyzed by HPLC. The brain was then carefully excised, washed with saline and frozen at −80° C.
(§2) Quantification of GR in plasma was performed by mixing 1 ml of plasma sample with 2 ml of methanol, followed by vortex stirring and centrifugation at 10,000-g for 10 min. The brain was homogenized with 2 ml of methanol/0.5 N HCl solution (1:1) followed by centrifugation at 10,000-g for 10 min. The supernatant solutions of both plasma and brain extracts were analyzed immediately by HPLC. Aliquots of 20 μl from each sample were injected into a HPLC system, equipped with a prepacked CN column. The quantification of GR was carried out at 301 nm. The samples were chromatographed using an isocratic mobile phase consisting of acetonitrile-acetate buffer solution pH5 (45:55) at a flow rate of 1 ml/min.

[4] = after IV curcumin in rats; cited from earlier work
[5] = cited from earlier work
[6] = Granisetron distribution in brain and plasma 1 h after IN and IV administration; settings: rat
Protocol: as §1, §2

C=C(C)[C@@H]1CCC(C)=C[C@H]1c1c(O)cc(CCCCC)cc1O [CBD, Cannabidiol]
concentration at 1 h ([1]; plasma, IV injection of CBD solution, dose 220 μg/Kg, 1 hour after administration, read-out: Plasma level (cannabidiol)): 71.2 ng/mL
CBD brain concentration ([1]; 1 h after iv administration of the same dose (220 μg/Kg)): no detectable concentration
Brain Level (cannabidiol) ([1]; IV injection of CBD solution, dose 220 μg/Kg, 1 hour after administration): Undetectable
oral bioavailability [2]: about 6%

CN1C2CCCC1CC(NC(=O)c1nn(C)c3ccccc13)C2.Cl (stereo not shown) [GR-HCl]
portion of the dose that reached the brain [3]: ca. 0.64%

COc1cc(/C=C/C(=O)CC(=O)/C=C/c2ccc(O)c(OC)c2)ccc1O [curcumin, diferuloyl methane]
t1/2 [4]: 0.47 h

CN1C2CCCC1CC(NC(=O)c1nn(C)c3ccccc13)C2 (stereo not shown) [granisetron, Granisetron]
average Cmax ([5]; 1 mg oral dose): 3.63 ng/mL
Vd (volume of distribution) ([5]; in vivo): 3.94 L/kg
clearance (CL) ([5]; in vivo): 6.83 mL/min/kg
protein binding ([5]; in vivo): 65%
t1/2 ([5]; in vivo): 6.23 h
Plasma level (granisetron) ([6]; IV injection of GR hydrochloride in saline (GR HCl 36 μg/kg), 1 hour after administration): Undetectable
concentration at 1 h ([6]; brain, iv, 36 μg/kg): 59.7 ng/g
